Structures can show the parent of a compound that is named as a salt.
Columns and labels:
Type in all cases: physicochemical
[1] = Water content by the Karl Fischer method
Method: The water content is determined according to the Karl Fischer method.

[2] = Stability of the crystal form against relative humidity (polymorphic transformation); details: for relative humidity above which the form transforms to known Dihydrate H2-1: transformation not reversible, hydrochloride
Method: Infrared spectra (IR) were collected on a MKII Golden Gate™ Single Reflection Diamond ATR (attenuated total reflection) cell with a Bruker Tensor 27 FTIR spectrometer with 4 cm^−1 resolution. To collect a spectrum a spatula tip of a sample was applied to the surface of the diamond in powder form. Then the sample was pressed onto the diamond with a sapphire anvil and the spectrum was recorded. A spectrum of the clean diamond was used as background spectrum. A typical precision of the wavenumber values is in the range of about ±2 cm^−1. Thus, an infrared peak that appears at 1716 cm^−1 can appear between 1714 and 1718 cm^−1 on most infrared spectrometers under standard conditions. A sample was stored at 45-49% relative humidity for 12 hours.

[3] = Thermogravimetric analysis (mass / water loss)
Method: Thermogravimetric analysis was performed with the thermogravimetric system TGA-7 using the Pyris Software for Windows NT (Perkin-Elmer, Norwalk, Conn., USA), 50 μl platinum pans, nitrogen purge gas (sample purge: 20 ml min^−1, balance purge: 40 ml min^−1).

[4] = Moisture sorption isotherm / water content at defined relative humidity, 25° C.
Method: The moisture sorption isotherm was recorded with a SPS-11 moisture sorption analyzer (MD Mess-technik, Ulm, D). The measurement cycle was started at 0% relative humidity (RH), increased in 10% steps up to 90% RH and in a 5% step up to 95% RH. The equilibrium condition for each step was set to a constant mass ±0.003% over 49 min. The temperature was 25±0.1° C.

[5] = at 40% relative humidity at 25° C.

N#C[C@@H]1C[C@@H]2CC2N1C(=O)[C@@H](N)C12CC3CC(CC(O)(C3)C1)C2 (stereo partly drawn) [form HT-IV S, Saxagliptin hydrochloride]
Water (KF) ([1]; after drying in vacuum oven at 50° C. about 10 hours, then about 80° C. for 5 hours): 0.7% | Water (KF) ([1]; sample stored at 45-49% relative humidity for 12 hours): 1.2% | change in the crystal form (FTIR) ([2]; after storage at 45-49% relative humidity for 12 hours): No change in the crystal form

N#C[C@@H]1C[C@@H]2CC2N1C(=O)[C@@H](N)C12CC3CC(CC(O)(C3)C1)C2 (stereo partly drawn) [form HT-S, Saxagliptin hydrochloride]
water loss based on thermogravimetric analysis ([3]; FIG. 6): not more than 0.5 % w/w

N#C[C@@H]1C[C@@H]2CC2N1C(=O)[C@@H](N)C12CC3CC(CC(O)(C3)C1)C2 (stereo partly drawn) [form I-S, Saxagliptin hydrochloride]
water content (Karl Fischer apparatus) ([1]; crystalline form as obtained in example 1): 1.2 % w/w | water content ([4]; at about 50% relative humidity at 25° C., reversible): about 1.5% | fate of the water when lowering the relative humidity ([4]; relative humidity at 25° C. lowered to about 0.5%, reversible on exposure to about 50% humidity): lost completely | relative humidity at which the form is stable [2]: below 50 % relative humidity | relative humidity above which the form transforms to known Dihydrate H2-1 ([2]; listed as Form I-S): Above 50 % relative humidity

N#C[C@@H]1C[C@@H]2CC2N1C(=O)[C@@H](N)C12CC3CC(CC(O)(C3)C1)C2 (stereo partly drawn) [form IV-S, Saxagliptin hydrochloride]
water content (moisture sorption analysis) ([4]; at 0% relative humidity, process reversible): 12.8% | water content (moisture sorption analysis) [4, 5]: 13.1% | water corresponding to the water content [4, 5]: 2.94 mol of water | water corresponding to the TGA mass loss ([3]; up to 100° C.): 2.86 mol of water | mass loss by thermogravimetric analysis ([3]; up to 100° C., FIG. 11): about 12.8% | relative humidity above which the form transforms to known Dihydrate H2-1 [2]: above 40 % relative humidity

— US20120088808A1, “CRYSTAL FORMS OF SAXAGLIPTIN” (SANDOZ AG, priority 2009, published 2012)
